The source of these data is US8759535B2, “Substituted fused imidazole derivatives, pharmaceutical compositions, and methods of use thereof” (High Point Pharmaceuticals, LLC, priority 2010, dated 2014).

For this experiment, the system named is HMOX1. Kind of experiment: HMOX1 Protein Assay (immunostaining of HO-1 in NHLF cells, GE InCell 1000). In kind it is cell-based. The following applies: Homo sapiens, fold change above DMSO treated cells, 5 μM compound, 16 h. The method, boiled down: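 Fold induction of HO-1 over vehicle, normally at 5 μM compound (asterisk marks 3 μM), in 0.8% DMSO medium. Normal human lung fibroblasts were treated 16 h, then paraformaldehyde-fixed, anti-HO-1/Alexa 488 stained with Hoechst, and read by high-content imaging.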

Molecules are shown by their SMILES.

By fold induction is commonly meant the ratio of treated to control signal. `Cn1c(Nc2nc3ccc(OC(F)(F)F)cc3s2)nc2cc(C(=O)O)ccc21` [Example 3, 1-Methyl-2-(6-trifluoromethoxy-benzothiazol-2-ylamino)-1H-benzoimidazole-5-carboxylic acid] yielded a fold induction at 5 µM of 12.5.

In the case of `CN(C)CCNC(=O)c1ccc2c(c1)nc(Nc1nc3ccc(OC(F)(F)F)cc3s1)n2C` [Example 82, 1-Methyl-2-(6-trifluoromethoxy-benzothiazol-2-ylamino)-1H-benzoimidazole-5-carboxylic acid (2-dimethylamino-ethyl)-amide], the fold induction at 5 µM was 17.

As to `Cn1c(Nc2nc3ccc(OC(F)(F)F)cc3s2)nc2cc(C(=O)N3CCN(CCO)CC3)ccc21` [Example 305, [4-(2-Hydroxy-ethyl)-piperazin-1-yl]-[1-methyl-2-(6-trifluoromethoxy-benzothiazol-2-ylamino)-1H-benzoimidazol-5-yl]-methanone], the fold induction at 5 µM worked out at 41.7.

In turn, `Cn1c(Nc2nc3ccc(OC(F)(F)F)cc3s2)nc2cc(C(=O)NCCCC(C)(C)CO)ccc21` [Example 229, 1-Methyl-2-(6-trifluoromethoxy-benzothiazol-2-ylamino)-1H-benzoimidazole-5-carboxylic acid (5-hydroxy-4,4-dimethyl-pentyl)-amide] showed a fold induction at 5 µM of 14.4.

Take `CN(C)[C@@H]1CCN(C(=O)CNC(=O)c2ccc3c(c2)nc(Nc2nc4ccc(OC(F)(F)F)cc4s2)n3C)C1` [Example 415, 1-Methyl-2-(6-trifluoromethoxy-benzothiazol-2-ylamino)-1H-benzoimidazole-5-carboxylic acid [2-((R)-3-dimethylamino-pyrrolidin-1-yl)-2-oxo-ethyl]-amide]: the fold induction at 5 µM came out at 74.8.

As for `Cn1c(Nc2nc3ccc(OC(F)(F)F)cc3s2)nc2cc(C(=O)NCC(=O)N3CCCC(O)C3)ccc21` (stereo not drawn) [Example 431, 1-Methyl-2-(6-trifluoromethoxy-benzothiazol-2-ylamino)-1H-benzoimidazole-5-carboxylic acid [2-(3-hydroxy-piperidin-1-yl)-2-oxo-ethyl]-amide], the fold induction at 5 µM was 49.4.

Consider `COCCn1c(Nc2nc3ccc(Cl)cc3s2)nc2cc(C(=O)NCC3CCN(CCO)CC3)ccc21` [Example 304, 2-(6-Chloro-benzothiazol-2-ylamino)-1-(2-methoxy-ethyl)-1H-benzoimidazole-5-carboxylic acid [1-(2-hydroxy-ethyl)-piperidin-4-ylmethyl]-amide], for which the fold induction at 5 µM is 24.7.

Consider `Cc1ccc2nc(Nc3nc4cc(C(=O)NCC(=O)N(C)C)ccc4n3C)sc2c1` [Example 363, 1-Methyl-2-(6-methyl-benzothiazol-2-ylamino)-1H-benzoimidazole-5-carboxylic acid dimethylcarbamoylmethyl-amide], for which the fold induction at 5 µM came to 10.

In turn, `CN(C)C(=O)CNC(=O)c1ccc2c(c1)nc(Nc1nc3ccc(Cl)cc3s1)n2C` [Example 133, 2-(6-Chloro-benzothiazol-2-ylamino)-1-methyl-1H-benzimidazole-5-carboxylic acid dimethylcarbamoylmethyl-amide] gave a fold induction at 5 µM of 45.9.

Compound `C[C@H](NC(=O)c1ccc2c(c1)nc(Nc1nc3ccc(OC(F)(F)F)cc3s1)n2C)C(=O)N(C)C` [Example 149, 1-Methyl-2-(6-trifluoromethoxy-benzothiazol-2-ylamino)-1H-benzoimidazole-5-carboxylic acid ((S)-1-dimethylcarbamoyl-ethyl)-amide] displayed a fold induction at 5 µM of 38.7.

Consider `CCOCCNC(=O)c1ccc2c(c1)nc(Nc1nc3ccc(OC(F)(F)F)cc3s1)n2CCF` [Example 172, 1-(2-Fluoro-ethyl)-2-(6-trifluoromethoxy-benzothiazol-2-ylamino)-1H-benzoimidazole-5-carboxylic acid (2-ethoxy-ethyl)-amide], for which the fold induction at 5 µM stood at 21.4.

For the compound `Cn1c(Nc2nc3ccc(Cl)cc3s2)nc2cc(C(=O)O)ccc21` [Example 29, 2-(6-Chloro-benzothiazol-2-ylamino)-1-methyl-1H-benzoimidazole-5-carboxylic acid], the fold induction at 5 µM was 13.9.
